Reference: doi:10.1101/119818v1 (biorxiv, 2017)

Target: T1, PARP3 (Homo sapiens, UniProt Q9Y6F1)
T1 sequence (Q9Y6F1 1-533): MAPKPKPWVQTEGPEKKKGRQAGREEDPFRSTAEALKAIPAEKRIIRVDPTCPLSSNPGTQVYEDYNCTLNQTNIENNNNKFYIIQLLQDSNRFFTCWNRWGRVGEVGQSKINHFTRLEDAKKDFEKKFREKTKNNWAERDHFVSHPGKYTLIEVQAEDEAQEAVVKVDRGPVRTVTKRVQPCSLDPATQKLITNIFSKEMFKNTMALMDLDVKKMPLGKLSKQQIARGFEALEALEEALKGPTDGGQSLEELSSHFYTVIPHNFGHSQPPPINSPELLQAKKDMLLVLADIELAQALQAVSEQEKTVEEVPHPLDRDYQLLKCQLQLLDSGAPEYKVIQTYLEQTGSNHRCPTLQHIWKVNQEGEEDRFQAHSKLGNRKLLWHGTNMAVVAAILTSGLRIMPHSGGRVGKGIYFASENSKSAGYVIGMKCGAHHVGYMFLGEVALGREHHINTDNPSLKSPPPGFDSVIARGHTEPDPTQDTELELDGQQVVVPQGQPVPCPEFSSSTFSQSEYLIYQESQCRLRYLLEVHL
Assay: in vitro enzymatic inhibition assay, concentration response
Assay type: biochemical

IC50: 728 nM
SMILES: NC(=O)c1cccc2[nH]c(-c3ccc([C@@H]4CCCN4)cc3F)nc12 [A-966492]
